From ChEMBL document CHEMBL4004878, “Design, synthesis and structure-bactericidal activity relationships of novel 9-oxime ketolides and reductive epimers of acylides” (2017)
Values after ≈ are worked out from the molar mass of the structure shown.

Columns and labels:
Type in all cases: functional
Staphylococcus aureus [1] = assay: Bactericidal activity against methicillin-resistant Staphylococcus aureus PU20 expressing constitutive ermC incubated for 20 hrs followed by sub-culturing for 24 hrs in absence of compound
Streptococcus pneumoniae [2] = assay: Bacteriostatic activity against penicillin-susceptible Streptococcus pneumoniae PU09 after 20 to 24 hrs by two-fold microbroth dilution method
Staphylococcus aureus [3] = assay: Bacteriostatic activity against methicillin-resistant Staphylococcus aureus PU20 expressing constitutive ermC after 20 hrs by two-fold microbroth dilution method; details: PU20, 20 h
Staphylococcus aureus [4] = assay: Bactericidal activity against methicillin-resistant Staphylococcus aureus PU32 expressing inducible ermA incubated for 20 hrs followed by sub-culturing for 24 hrs in absence of compound
Moraxella catarrhalis [5] = assay: Bacteriostatic activity against erythromycin-susceptible Moraxella catarrhalis 11B366 after 20 hrs by two-fold microbroth dilution method; details: 11B366, 20 h
Streptococcus pneumoniae [6] = assay: Bactericidal activity against […] Streptococcus pneumoniae ATCC 49619 incubated for 20 to 24 hrs followed by sub-culturing for 24 hrs in absence of compound
Haemophilus influenzae [7] = assay: Bacteriostatic activity against azithromycin-susceptible/ampicillin-resistant Haemophilus influenzae 11P307 after 20 to 24 hrs by two-fold microbroth dilution method
Moraxella catarrhalis [8] = assay: Bactericidal activity against erythromycin-susceptible Moraxella catarrhalis 11B366 incubated for 20 hrs followed by sub-culturing for 24 hrs in absence of compound
Streptococcus pyogenes [9] = assay: Bactericidal activity against Streptococcus pyogenes 01-968 expressing inducible ermA incubated for 20 to 24 hrs followed by sub-culturing for 24 hrs in absence of compound
Haemophilus influenzae [10] = assay: Ratio of MBC to MIC for azithromycin susceptible/ampicillin-resistant Haemophilus influenzae 11P307
Moraxella catarrhalis [11] = assay: Ratio of MBC to MIC against erythromycin-susceptible Moraxella catarrhalis 11B366
Streptococcus pneumoniae [12] = assay: Ratio of MBC to MIC for […] Streptococcus pneumoniae ATCC 49619
Streptococcus pneumoniae [13] = assay: Bactericidal activity against penicillin-susceptible Streptococcus pneumoniae PU09 incubated for 20 to 24 hrs followed by sub-culturing for 24 hrs in absence of compound
Staphylococcus aureus [14] = assay: Bacteriostatic activity against methicillin-resistant Staphylococcus aureus PU32 expressing inducible ermA after 20 hrs by two-fold microbroth dilution method; details: PU32, 20 h
Streptococcus pneumoniae [15] = assay: Bacteriostatic activity against […] Streptococcus pneumoniae ATCC 49619 after 20 to 24 hrs by two-fold microbroth dilution method
Streptococcus pyogenes [16] = assay: Ratio of MBC to MIC for Streptococcus pyogenes 01-968 expressing inducible ermA
Streptococcus pneumoniae [17] = assay: Ratio of MBC to MIC for penicillin-susceptible Streptococcus pneumoniae PU09
Haemophilus influenzae [18] = assay: Bactericidal activity against azithromycin susceptible/ampicillin-resistant Haemophilus influenzae 11P307 incubated for 20 to 24 hrs followed by sub-culturing for 24 hrs in absence of compound
Staphylococcus aureus [19] = assay: Ratio of MBC to MIC against methicillin-resistant Staphylococcus aureus PU32 expressing inducible ermA
Streptococcus pyogenes [20] = assay: Bacteriostatic activity against Streptococcus pyogenes 12-207 expressing mef after 20 to 24 hrs by two-fold microbroth dilution method
Staphylococcus aureus [21] = assay: Ratio of MBC to MIC for methicillin-resistant Staphylococcus aureus PU20 expressing constitutive ermC
Streptococcus pyogenes [22] = assay: Bacteriostatic activity against Streptococcus pyogenes 01-968 expressing inducible ermA after 20 to 24 hrs by two-fold microbroth dilution method
Streptococcus pyogenes [23] = assay: Ratio of MBC to MIC for Streptococcus pyogenes 12-207 expressing mef
Streptococcus pyogenes [24] = assay: Bactericidal activity against Streptococcus pyogenes 12-207 expressing mef incubated for 20 to 24 hrs followed by sub-culturing for 24 hrs in absence of compound
Moraxella catarrhalis [25] = assay: Bactericidal activity against erythromycin-susceptible Moraxella catarrhalis 13L332 incubated for 20 hrs followed by sub-culturing for 24 hrs in absence of compound
Haemophilus influenzae [26] = assay: Bacteriostatic activity against azithromycin-susceptible Haemophilus influenzae ATCC 49247 after 20 to 24 hrs by two-fold microbroth dilution method
Moraxella catarrhalis [27] = assay: Bacteriostatic activity against erythromycin-susceptible Moraxella catarrhalis 13L332 after 20 hrs by two-fold microbroth dilution method; details: 13L332, 20 h
Haemophilus influenzae [28] = assay: Bactericidal activity against azithromycin-susceptible Haemophilus influenzae ATCC 49247 incubated for 20 to 24 hrs followed by sub-culturing for 24 hrs in absence of compound
Moraxella catarrhalis [29] = assay: Ratio of MBC to MIC against erythromycin-susceptible Moraxella catarrhalis 13L332
Haemophilus influenzae [30] = assay: Ratio of MBC to MIC against azithromycin-susceptible Haemophilus influenzae ATCC 49247

Structure (SMILES) | MBC (Staphylococcus aureus [1]) | MIC (Streptococcus pneumoniae [2]) | MIC (Staphylococcus aureus [3]) | MBC (Staphylococcus aureus [4]) | MIC (Moraxella catarrhalis [5]) | MBC (Streptococcus pneumoniae [6]) | MIC (Haemophilus influenzae [7]) | MBC (Moraxella catarrhalis [8]) | MBC (Streptococcus pyogenes [9]) | Ratio (Haemophilus influenzae [10]) | Ratio (Moraxella catarrhalis [11]) | MBC (Streptococcus pneumoniae [13]) | MIC (Staphylococcus aureus [14]) | MIC (Streptococcus pneumoniae [15]) | Ratio (Streptococcus pyogenes [16]) | Ratio (Streptococcus pneumoniae [17]) | MBC (Haemophilus influenzae [18]) | Ratio (Staphylococcus aureus [19]) | MIC (Streptococcus pyogenes [20]) | MIC (Streptococcus pyogenes [22]) | further results
CC[C@H]1OC(=O)[C@@](C)(F)C(=O)[C@H](C)[C@@H](O[C@@H]2O[C@H](C)C[C@H](N(C)C)[C@H]2O)[C@](C)(OC)C[C@@H](C)/C(=N\OC/C=C/c2cnc3ccccc3c2)[C@H](C)[C@H]2OC(=O)O[C@@]21C | 256 µg/mL (≈ 315 µM) | 0.5 µg/mL (≈ 0.614 µM) | 64 µg/mL (≈ 78.6 µM) | > 16 µg/mL | 2 µg/mL (≈ 2.46 µM) | 0.062 µg/mL (≈ 0.0762 µM) | 8 µg/mL (≈ 9.83 µM) | 2 µg/mL (≈ 2.46 µM) | 2 µg/mL (≈ 2.46 µM) | >8 | 1 | 1 µg/mL (≈ 1.23 µM) | 2 µg/mL (≈ 2.46 µM) | ≤ 0.008 µg/mL | 8 | 2 | > 64 µg/mL | >8 | 0.062 µg/mL (≈ 0.0762 µM) | 0.25 µg/mL (≈ 0.307 µM) | Ratio (Streptococcus pneumoniae [12]): >=8; Ratio (Staphylococcus aureus [21]): 4; Ratio (Streptococcus pyogenes [23]): >8; MBC (Streptococcus pyogenes [24]): > 0.5 µg/mL
CC[C@H]1OC(=O)[C@H](C)C(=O)[C@H](C)[C@@H](O[C@@H]2O[C@H](C)C[C@H](N(C)C)[C@H]2O)[C@](C)(OC)C[C@@H](C)/C(=N\OCC#Cc2cncc3ccccc23)[C@H](C)[C@H]2OC(=O)O[C@@]21C | 64 µg/mL (≈ 80.6 µM) | 0.25 µg/mL (≈ 0.315 µM) | 32 µg/mL (≈ 40.3 µM) | > 8 µg/mL | 4 µg/mL (≈ 5.04 µM) | 0.031 µg/mL (≈ 0.039 µM) | 16 µg/mL (≈ 20.2 µM) | 4 µg/mL (≈ 5.04 µM) | > 2 µg/mL | >8 | 1 | 0.5 µg/mL (≈ 0.63 µM) | 1 µg/mL (≈ 1.26 µM) | ≤ 0.008 µg/mL | >8 | 2 | > 128 µg/mL | >8 | 0.016 µg/mL (≈ 0.0202 µM) | 0.25 µg/mL (≈ 0.315 µM) | Ratio (Streptococcus pneumoniae [12]): >=4; Ratio (Staphylococcus aureus [21]): 2; Ratio (Streptococcus pyogenes [23]): >8; MBC (Streptococcus pyogenes [24]): > 0.125 µg/mL
CC[C@H]1OC(=O)[C@@](C)(F)C(=O)[C@H](C)[C@@H](O[C@@H]2O[C@H](C)C[C@H](N(C)C)[C@H]2O)[C@](C)(OC)C[C@@H](C)/C(=N\OC/C=C/c2cncc(N)c2)[C@H](C)[C@H]2OC(=O)O[C@@]21C | > 256 µg/mL | 0.5 µg/mL (≈ 0.642 µM) | > 256 µg/mL | > 4 µg/mL | – | 0.25 µg/mL (≈ 0.321 µM) | 16 µg/mL (≈ 20.5 µM) | – | > 0.5 µg/mL | 2 | – | 1 µg/mL (≈ 1.28 µM) | 0.5 µg/mL (≈ 0.642 µM) | 0.125 µg/mL (≈ 0.16 µM) | >8 | 2 | 32 µg/mL (≈ 41.1 µM) | >8 | – | 0.062 µg/mL (≈ 0.0796 µM) | MBC (Moraxella catarrhalis [25]): > 0.25 µg/mL; MIC (Haemophilus influenzae [26]): 32 µg/mL (≈ 41.1 µM); MIC (Moraxella catarrhalis [27]): 0.031 µg/mL (≈ 0.0398 µM); MBC (Haemophilus influenzae [28]): 32 µg/mL (≈ 41.1 µM); Ratio (Moraxella catarrhalis [29]): >8; Ratio (Haemophilus influenzae [30]): 1
CC[C@H]1OC(=O)[C@@](C)(F)C(=O)[C@H](C)[C@@H](O[C@@H]2O[C@H](C)C[C@H](N(C)C)[C@H]2O)[C@](C)(OC)C[C@@H](C)/C(=N\OC/C=C/c2ccc3ncccc3c2)[C@H](C)[C@H]2OC(=O)O[C@@]21C | 64 µg/mL (≈ 78.6 µM) | 0.5 µg/mL (≈ 0.614 µM) | 32 µg/mL (≈ 39.3 µM) | > 8 µg/mL | 2 µg/mL (≈ 2.46 µM) | 0.016 µg/mL (≈ 0.0197 µM) | 8 µg/mL (≈ 9.83 µM) | 2 µg/mL (≈ 2.46 µM) | 1 µg/mL (≈ 1.23 µM) | >8 | 1 | 1 µg/mL (≈ 1.23 µM) | 1 µg/mL (≈ 1.23 µM) | ≤ 0.008 µg/mL | 4 | 2 | > 64 µg/mL | >8 | 0.062 µg/mL (≈ 0.0762 µM) | 0.25 µg/mL (≈ 0.307 µM) | Ratio (Streptococcus pneumoniae [12]): >=2; Ratio (Staphylococcus aureus [21]): 2; Ratio (Streptococcus pyogenes [23]): >8; MBC (Streptococcus pyogenes [24]): > 0.5 µg/mL
CC[C@H]1OC(=O)[C@@](C)(F)C(=O)[C@H](C)[C@@H](O[C@@H]2O[C@H](C)C[C@H](N(C)C)[C@H]2O)[C@](C)(OC)C[C@@H](C)/C(=N\OC/C=C/c2cncc(C(N)=O)c2)[C@H](C)[C@H]2OC(=O)O[C@@]21C | > 256 µg/mL | 0.25 µg/mL (≈ 0.31 µM) | > 256 µg/mL | 8 µg/mL (≈ 9.91 µM) | – | 0.125 µg/mL (≈ 0.155 µM) | 16 µg/mL (≈ 19.8 µM) | – | > 0.5 µg/mL | 1 | – | 0.5 µg/mL (≈ 0.62 µM) | 1 µg/mL (≈ 1.24 µM) | 0.062 µg/mL (≈ 0.0768 µM) | >8 | 2 | 16 µg/mL (≈ 19.8 µM) | 8 | – | 0.062 µg/mL (≈ 0.0768 µM) | MBC (Moraxella catarrhalis [25]): > 0.5 µg/mL; MIC (Haemophilus influenzae [26]): 16 µg/mL (≈ 19.8 µM); MIC (Moraxella catarrhalis [27]): 0.062 µg/mL (≈ 0.0768 µM); MBC (Haemophilus influenzae [28]): 32 µg/mL (≈ 39.7 µM); Ratio (Moraxella catarrhalis [29]): >8; Ratio (Haemophilus influenzae [30]): 2
CC[C@H]1OC(=O)[C@H](C)[C@@H](O[C@H]2C[C@@](C)(OC)[C@@H](O)[C@H](C)O2)[C@H](C)[C@@H](O[C@@H]2O[C@H](C)C[C@H](N(C)C)[C@H]2O)[C@](C)(OC)C[C@@H](C)C(=O)[C@H](C)[C@@H](O)[C@]1(C)O [CLARITHROMYCIN] | > 256 µg/mL | 4 µg/mL (≈ 5.35 µM) | > 256 µg/mL | 16 to 256 µg/mL (≈ 21.4 to 342 µM) | 0.125 µg/mL (≈ 0.167 µM) | 0.062 to 0.125 µg/mL (≈ 0.0829 to 0.167 µM) | 1 to 8 µg/mL (≈ 1.34 to 10.7 µM) | 0.25 µg/mL (≈ 0.334 µM) | > 8 µg/mL | 2 - 8 | 2 | 8 µg/mL (≈ 10.7 µM) | 8 to 32 µg/mL (≈ 10.7 to 42.8 µM) | 0.031 to 0.062 µg/mL (≈ 0.0414 to 0.0829 µM) | >8 | 2 | 8 to 16 µg/mL (≈ 10.7 to 21.4 µM) | >2 - 8 | 16 µg/mL (≈ 21.4 µM) | 1 µg/mL (≈ 1.34 µM) | MBC (Moraxella catarrhalis [25]): 0.125 µg/mL (≈ 0.167 µM); MIC (Haemophilus influenzae [26]): 16 µg/mL (≈ 21.4 µM); MIC (Moraxella catarrhalis [27]): 0.031 µg/mL (≈ 0.0414 µM); MBC (Haemophilus influenzae [28]): 32 µg/mL (≈ 42.8 µM); Ratio (Streptococcus pyogenes [23]): 2; MBC (Streptococcus pyogenes [24]): 32 µg/mL (≈ 42.8 µM); Ratio (Moraxella catarrhalis [29]): 4; Ratio (Haemophilus influenzae [30]): 2
